Assay [1] deals with Trypanosoma cruzi. Kind of assay: Inhibitory concentration against epimastigotes (Tulahuen strain) of Trypanosoma cruzi; Inactive. The assay is classed as functional, organism-based.
Assay [2] relates to Trypanosoma cruzi. Kind of assay: Inhibitory concentration against trypomastigotes (Y strain) of Trypanosoma cruzi; Inactive. The class given is functional, organism-based.
In assay [3] the test system is Trypanosoma cruzi. Kind of assay: Inhibitory concentration against Trypomastigotes (Y strain) of Trypanosoma cruzi. The class given is functional, organism-based.
The subject of assay [4] is Trypanosoma cruzi. The assay can be described thus: Inhibitory concentration against Epimastigotes (Tulahuen strain) of Trypanosoma cruzi. The class given is functional, organism-based.
Assay [5] is described as follows: Ratio of inhibitory concentration to that of reference drug was determined. The class given is functional.
Setting [6] is: Trypanosoma cruzi, read-out: IC50.

Values after ≈ are worked out from the molar mass of the structure shown. Values joined by “and” are separate entries in the source; they are usually repeats but may differ in a detail not shown here. Equal entries are not always repeated.

`COc1cc(Cc2nn(C)c(=O)c3ccccc23)cc(OC)c1OC`: the IC50 with Trypanosoma cruzi [1] and in the assay with Trypanosoma cruzi [2] was above 100 µg/mL each time.

In the assay with Trypanosoma cruzi [2], `COc1ccc(CC2(O)c3ccccc3C3=NCCN32)cc1` (stereo unspecified) yielded an IC50 above 100 µg/mL.

Regarding `COc1ccc(/C=C2\OC(=O)c3ccccc32)cc1OC`, the IC50 with Trypanosoma cruzi [1] and in the assay with Trypanosoma cruzi [2] was above 100 µg/mL in each case.

As for `Oc1nnc(Cc2ccc3c(c2)OCO3)c2ccccc12`, the IC50 in the assay on Trypanosoma cruzi [1] and in the assay with Trypanosoma cruzi [2] was above 100 µg/mL each time.

Consider `COc1cc(CC2(O)c3ccccc3C3=NCCN32)cc(OC)c1OC` (stereo unspecified), for which the IC50 in the assay on Trypanosoma cruzi [1] and with Trypanosoma cruzi [2] was above 100 µg/mL each time.

As to `O=C1O/C(=C\c2ccc3c(c2)OCO3)c2ccccc21`, the IC50 with Trypanosoma cruzi [1] and in the assay with Trypanosoma cruzi [2] was above 100 µg/mL in each case.

For the compound `COc1ccc(CCc2cc(OC(C)=O)cc(OC)c2C(=O)O)cc1`, the IC50 with Trypanosoma cruzi [1] and in the assay on Trypanosoma cruzi [2] was above 100 µg/mL each time.

On to `COc1ccc(CCc2cc(O)cc(OC)c2)cc1`, for which the IC50 in the assay with Trypanosoma cruzi [1] and in the assay with Trypanosoma cruzi [2] was above 100 µg/mL in each case.

For `COc1ccc(CC(=O)c2ccccc2C(=O)N2CCCCC2)cc1`, the IC50 in the assay on Trypanosoma cruzi [1] and in the assay with Trypanosoma cruzi [2] was above 100 µg/mL in each case.

`CCNC(=O)c1ccccc1C(=O)C(=O)c1ccc(OC)cc1`: the IC50 in the assay on Trypanosoma cruzi [1] and in the assay with Trypanosoma cruzi [2] was above 100 µg/mL in each case.

Take `Oc1nnc(Cc2ccc(Cl)cc2)c2ccccc12`: the IC50 in the assay with Trypanosoma cruzi [1] and with Trypanosoma cruzi [2] was above 100 µg/mL each time.

As for `COc1ccc(Cc2nn(C)c(=O)c3ccccc23)cc1`, the IC50 in the assay with Trypanosoma cruzi [1] and in the assay on Trypanosoma cruzi [2] was above 100 µg/mL throughout.

Turning to `Cn1nc(Cc2ccc(Cl)cc2)c2ccccc2c1=O`, the IC50 with Trypanosoma cruzi [1] and in the assay on Trypanosoma cruzi [2] was above 100 µg/mL throughout.

Regarding `O=C(Cc1ccc(Cl)cc1)c1ccccc1C(=O)N1CCCCC1`, the IC50 with Trypanosoma cruzi [1] and with Trypanosoma cruzi [2] was above 100 µg/mL each time.

Turning to `COc1ccc(CC2(O)c3ccccc3C3=NCCCN32)cc1OC` (stereo unspecified), the IC50 in the assay on Trypanosoma cruzi [1] and in the assay on Trypanosoma cruzi [2] was above 100 µg/mL each time.

For the compound `COc1ccc(Cc2nnc(O)c3ccccc23)cc1OC`, the IC50 in the assay on Trypanosoma cruzi [1] and in the assay on Trypanosoma cruzi [2] was above 100 µg/mL in each case.

As for `OC1(Cc2ccc3c(c2)OCO3)c2ccccc2C2=NCCCN21` (stereo unspecified), the IC50 in the assay on Trypanosoma cruzi [1] and with Trypanosoma cruzi [2] was above 100 µg/mL each time.

For the compound `COc1cc(C(=O)C(=O)c2ccccc2C(=O)N2CCCCC2)cc(OC)c1OC`, the IC50 in the assay on Trypanosoma cruzi [2] was above 100 µg/mL.

In the case of `O=C(Cc1ccc2c(c1)OCO2)c1ccccc1C(=O)N1CCCCC1`, the IC50 in the assay with Trypanosoma cruzi [1] and in the assay with Trypanosoma cruzi [2] was above 100 µg/mL each time.

For the compound `OC1(Cc2ccc(Cl)cc2)c2ccccc2C2=NCCCN21` (stereo unspecified), the IC50 in the assay with Trypanosoma cruzi [2] is above 100 µg/mL.

For the compound `O=C(C(=O)c1ccccc1C(=O)N1CCCCC1)c1ccc(Cl)cc1`, the IC50 in the assay on Trypanosoma cruzi [1] and in the assay on Trypanosoma cruzi [2] was above 100 µg/mL each time.

In the case of `COc1cc(Cc2nnc(O)c3ccccc23)cc(OC)c1OC`, the IC50 with Trypanosoma cruzi [1] and in the assay on Trypanosoma cruzi [2] was above 100 µg/mL throughout.

`O=C(Cc1ccccc1)c1ccccc1C(=O)N1CCCCC1`: the IC50 in the assay on Trypanosoma cruzi [1] and in the assay on Trypanosoma cruzi [2] was above 100 µg/mL each time.

Regarding `OC1(Cc2ccc3c(c2)OCO3)c2ccccc2C2=NCCN21` (stereo unspecified), the IC50 in the assay with Trypanosoma cruzi [1] and with Trypanosoma cruzi [2] was above 100 µg/mL in each case.

Turning to `O=C1O/C(=C\c2ccccc2)c2ccccc21`, the IC50 in the assay on Trypanosoma cruzi [1] was 45 µg/mL (≈ 202 µM); with Trypanosoma cruzi [2] it was above 100 µg/mL.

With `O=c1[nH]nc(Cc2ccccc2)c2ccccc12`, the IC50 in the assay on Trypanosoma cruzi [1] and in the assay on Trypanosoma cruzi [2] was above 100 µg/mL in each case.

With `CN(C)c1ccc(C(=C2C=CC(=[N+](C)C)C=C2)c2ccc(N(C)C)cc2)cc1.[Cl-]` [GENTIAN VIOLET], the IC50 with Trypanosoma cruzi [3] (setting [6]) was 100 µg/mL and 245 µM.

As to `COc1ccc(C(=O)C(=O)c2ccccc2C(=O)N2CCCCC2)cc1`, the IC50 in the assay with Trypanosoma cruzi [1] and in the assay on Trypanosoma cruzi [2] was above 100 µg/mL throughout.

For `COc1ccc(C(=O)C(=O)c2ccccc2C(=O)N2CCCCC2)cc1OC`, the IC50 in the assay on Trypanosoma cruzi [1] and with Trypanosoma cruzi [2] was above 100 µg/mL each time.

With `O=C(C(=O)c1ccccc1C(=O)N1CCCCC1)c1ccccc1`, the IC50 with Trypanosoma cruzi [1] and in the assay with Trypanosoma cruzi [2] was above 100 µg/mL in each case.

As for `COc1ccc(CC2(O)c3ccccc3C3=NCCCN32)cc1` (stereo unspecified), the IC50 with Trypanosoma cruzi [1] and in the assay on Trypanosoma cruzi [2] was above 100 µg/mL each time.

Turning to `COc1ccc(CC2(O)c3ccccc3C3=NCCN32)cc1OC` (stereo unspecified), the IC50 in the assay with Trypanosoma cruzi [1] and with Trypanosoma cruzi [2] was above 100 µg/mL throughout.

Turning to `COc1cc(/C=C2\OC(=O)c3ccccc32)cc(OC)c1OC`, the IC50 in the assay with Trypanosoma cruzi [1] and in the assay with Trypanosoma cruzi [2] was above 100 µg/mL throughout.

Compound `OC1(Cc2ccccc2)c2ccccc2C2=NCCCN21` (stereo unspecified) showed an IC50 in the assay on Trypanosoma cruzi [2] above 100 µg/mL.

Consider `COc1ccc(Cc2nnc(O)c3ccccc23)cc1`, for which the IC50 in the assay with Trypanosoma cruzi [1] and in the assay with Trypanosoma cruzi [2] was above 100 µg/mL each time.

Regarding `OC1(Cc2ccccc2)c2ccccc2C2=NCCN21` (stereo unspecified), the IC50 in the assay with Trypanosoma cruzi [2] was above 100 µg/mL.

On to `COc1ccc(CCc2cc(O)cc(OC)c2C(=O)O)cc1` [ISONOTHOLAENIC ACID], for which, in the assay on Trypanosoma cruzi [2], the IC50 is above 100 µg/mL.

With `Cn1nc(Cc2ccc3c(c2)OCO3)c2ccccc2c1=O`, the IC50 with Trypanosoma cruzi [1] and with Trypanosoma cruzi [2] was above 100 µg/mL each time.

In the case of `O=C(C(=O)c1ccccc1C(=O)N1CCCCC1)c1ccc2c(c1)OCO2`, the IC50 with Trypanosoma cruzi [1] and in the assay with Trypanosoma cruzi [2] was above 100 µg/mL throughout.

In the case of `Cn1nc(Cc2ccccc2)c2ccccc2c1=O`, the IC50 in the assay with Trypanosoma cruzi [1] and in the assay with Trypanosoma cruzi [2] was above 100 µg/mL in each case.

In the case of `COc1ccc(/C=C2\OC(=O)c3ccccc32)cc1`, the IC50 in the assay with Trypanosoma cruzi [1] and with Trypanosoma cruzi [2] was above 100 µg/mL in each case.

Regarding `COC(=O)c1c(CCc2ccc(OC)cc2)cc(O)cc1OC`, the IC50 in the assay on Trypanosoma cruzi [1] and with Trypanosoma cruzi [2] was above 100 µg/mL in each case.

For the compound `COc1cc(CC(=O)c2ccccc2C(=O)N2CCCCC2)cc(OC)c1OC`, the IC50 in the assay with Trypanosoma cruzi [2] was above 100 µg/mL.

Regarding `COc1cc(CC2(O)c3ccccc3C3=NCCCN32)cc(OC)c1OC` (stereo unspecified), the IC50 in the assay with Trypanosoma cruzi [1] and in the assay with Trypanosoma cruzi [2] was above 100 µg/mL each time.

As for `COc1ccc(Cc2nn(C)c(=O)c3ccccc23)cc1OC`, the IC50 in the assay with Trypanosoma cruzi [1] and with Trypanosoma cruzi [2] was above 100 µg/mL throughout.

For `O=C1O/C(=C\c2ccc(Cl)cc2)c2ccccc21`, the IC50 in the assay with Trypanosoma cruzi [1] and in the assay on Trypanosoma cruzi [2] was above 100 µg/mL throughout.

On to `OC1(Cc2ccc(Cl)cc2)c2ccccc2C2=NCCN21` (stereo unspecified), for which the IC50 in the assay on Trypanosoma cruzi [4] came out at 33.6 µM; in the assay on Trypanosoma cruzi [1], 10 µg/mL (≈ 33.5 µM); in the assay on Trypanosoma cruzi [3] (setting [6]) it was 7.9 µM; in the assay with Trypanosoma cruzi [2], 2.3 µg/mL (≈ 7.7 µM).

Consider `COc1ccc(C(=O)C(=O)c2ccccc2C(=O)N2CCCC2)cc1`, for which the IC50 with Trypanosoma cruzi [1] and in the assay with Trypanosoma cruzi [2] was above 100 µg/mL each time.

Turning to `COc1ccc(CC(=O)c2ccccc2C(=O)N2CCCCC2)cc1OC`, the IC50 in the assay with Trypanosoma cruzi [1] and with Trypanosoma cruzi [2] was above 100 µg/mL throughout.

Turning to `COc1ccc(CCc2cc(O)cc(OC)c2C(=O)N2CCCCC2)cc1`, the IC50 in the assay on Trypanosoma cruzi [4] is 30 µg/mL and 81.3 µM; in the assay on Trypanosoma cruzi [3] it was 12 µg/mL and 33 µg/mL.

Regarding `O=C(Cn1ccnc1[N+](=O)[O-])NCc1ccccc1` [BENZNIDAZOLE], in the assay on Trypanosoma cruzi [4], the IC50 is 7.4 µg/mL and 30 µM. Moreover, the Ratio in assay [5] was determined as 1.

The record behind these values is ChEMBL document CHEMBL1133815, “Anti-Trypanosoma activity of some natural stilbenoids and synthetic related heterocyclic compounds” (Bioorg Med Chem Lett, 2001).
